Read-outs that look alike come from different tables or passages of the source.
Key:
RPE cells = assay: Cytotoxicity studies of propagators with RPE cells
Text: Cytotoxicity studies were also completed with RPE cells for: NVC, NVP, EGDA, and phenylacetyl bromide (BAP), with 10% DMSO as a control.

[1] = Young's Modulus of hydrogels with radical propagators; format: physicochemical; settings: propagator at 10 uL/mL in G5(80) [5% GelMA, 80% DoM], gelled
Description: (§1) Each of the three propagators (NVC, NVP, EGDA) were combined with G5(80) [5% GelMA, 80% DoM] at 10 uL/mL propagator concentration, and then gelled. Average Young's Modulus (kPa) for resulting hydrogels were as follows: EGDA [7.2494 kPa]; NVP [6.4995 kPa]; NVC [3.4744 kPa]. NVP and EGDA were also tested for a minimum concentration in G5 (10) and G5(80) which would still allow for hydrogel formation (1 minute crosslinking at ˜0.43 W). Minimum propagator concentrations for hydrogel formation were as follows: G5 (10) [NVP—5 uL/mL; EGDA—1.5 uL/mL]; G5 (80) [NVP—0.3 uL/mL; EGDA—0.1 uL/mL]

[2] = Minimum propagator concentration for hydrogel formation; format: physicochemical; settings: 1 minute crosslinking at ˜0.43 W
Description: as §1

SMILES | Cell viability (cytotoxicity) (RPE cells; after 18 hours of cell incubation, RPE cells, FIG. 19) | Average Young's Modulus [1] [kPa] | Minimum propagator concentration for hydrogel formation ([2]; in G5 (10)) [uL/mL] | Minimum propagator concentration for hydrogel formation ([2]; in G5 (80)) [uL/mL] | Cell viability (cytotoxicity) (RPE cells)
O=C(Br)Cc1ccccc1 [BAP, phenylacetyl bromide] | higher average cell viability than NVC | – | – | – | –
C=CC(=O)OCCOC(=O)C=C [EGDA, Ethylene Glycol Diacrylate] | – | 7.2494 | 1.5 | 0.1 | low cell viability
C=CN1CCCCCC1=O [NVC, N-vinylcaprolactam] | – | 3.4744 | – | – | –
C=CN1CCCC1=O [NVP, N-Vinylpyrrolidone] | – | 6.4995 | 5 | 0.3 | higher average cell viability than NVC
